Laboratory results: patent US20250082614A1, “METHODS OF USING RAD51 INHIBITORS FOR TREATMENT OF PANCREATIC CANCER” (Cyteir Therapeutics, Inc., priority 2019, published 2025)

Key:
[1] = tested on: Daudi cell line (AID positive); experiment: Cell killing assay in the Daudi cell line (AID positive), Cell-Titer Glo; assay type: cell-based; settings: Homo sapiens, 168 h; Daudi cells (AID positive), cell death on Day 7
Description: Primary screening was a phenotypic screen that utilized the synthetic lethal interaction between AID and RAD51 to identify compounds that were both potent and on target. AID expressing cells are dependent upon RAD51 for survival; inhibiting RAD51 in AID positive cells results in a cytotoxic effect.
The first step was to set up a cell killing assay in the Daudi cell line (AID positive). A 96 well u-bottom plate was prepared by writing the experiment number, plate number, date and initials in the top right corner of the plate lid. With a sterile 300 ml reservoir, and 25 ml serological pipette, evaporation buffer media was pipetted into reservoir in 25 ml increments. Using the liquid handler, 150 ul of evaporation buffer media was pipetted from reservoir into rows A and H, and Columns 1 and 12 of the 96 well u-bottom plate. Cell cultures were counted to obtain the density of cells per ml, and the culture viability. The cell density information was used to obtain 1,000,000 cells from culture using a 5 mL serological pipette into an epi tube. The cell density information from the culture was used to calculate the number of cells and volume of media needed for the assay to seed 1250 cells in 130 ul of media per available culture well in the 96 well u-bottom plate. Rows B through F were used for cells (50 wells in total), with row G left for an empty media control. The calculation was overestimated by 10 mL to account for the dead volume in the 300 ml reservoir. Once the media volume was calculated, the appropriate volume of media was pipetted in 25 mL increments into the 250 mL bottle using a 25 mL serological pipette. The 250 ml bottle was capped tightly, and placed into a 37° C. water bath for 2 minutes. While the culture media was warming, 10 mL of fresh media was pipetted from the 500 mL culture media bottle into a sterile 25 mL reservoir. Using the Eppendorf multichannel pipette, 130 ul of media was pipetted from the 25 mL reservoir into row G of the 96 well u-bottom plate. […]

[2] = Bi-directional Caco-2 permeability; assay type: in vitro ADME; settings: human; for Papp A→B at 90 min / Papp B→A at 90 min: Caco-2, 37° C., up to 90 minutes; for Papp A→B at 90 min: apical to basolateral, read-out: AB Papp (cm/sec × 10^6); for Papp B→A at 90 min: basolateral to apical, read-out: BA Papp (cm/sec × 10^6); for efflux ratio at 90 min: Caco-2 efflux ratio, read-out: BA/AB Ratio
Description: Bi-directional Caco-2 permeability was assayed. Caco-2 cells were seeded onto permeable polycarbonate supports and allowed to differentiate for about 3 weeks prior to being used in the assays. The cells were then exposed to the compounds from either the apical or basolateral sides and incubated at 37° C. for up to 90 minutes under light agitation. Compound transport was then measured using LC/MS/MS analysis at 30, 60, and 90 minutes.

[3] = Human liver microsome stability; assay type: in vitro ADME; settings: human liver microsomes
Description: The stability of the claimed compounds was determined in the presences of human liver microsomes. The compounds were incubated with the microsomes at 37° C. for 45 minutes. Samples were analyzed using LC-MS/MS. Data analysis included half-life, clearance rate, and the percentage of hepatic blood flow […] for each of the compounds in the different species.

[4] = Pharmacokinetic (PK) study, plasma by LC-MS; assay type: in vivo, rat; settings: po @ 80 mg/kg
Description: PK studies in mice were used to determine the fate of the compounds in a whole organism. Rats were treated with the compounds either orally of via IV at the indicated doses and followed for up to 24 hours. Plasma samples were taken at different time points and analyzed by LC-MS.

[5] = tested on: ARPE19/HPV16 (HPV Immortalized RPE); experiment: Cell line screen, potency assay; assay type: cell-based; settings: ARPE-19, AICDA expression Negative
Description: Percent cell death and EC50 values were calculated by comparing the cell viability of the compound treated wells to the non-treated wells. Normalized RLU values were obtained by subtracting the media well values from each of the wells in the same column, and then dividing that value by the DMSO treated cells values. The percent kill was then calculated by subtracting the normalized RLU value from 1 and multiplying by 100. The average normalized percent kill value and standard error of the mean was then calculated. The kill values were then inputted into Prism with the corresponding standard errors. In Prism a non-linear regression line was plotted with the data points using a semi-log scale, and the EC50 value was calculated.
The activity of the claimed compounds was measured in a variety of cell lines with different expression levels of activation induced cytidine deaminase (AICDA). The potency assay was repeated in all of the listed cell lines and the EC50 values recorded.

SMILES	EC50 [1] [nM]	Papp A→B at 90 min [2] [×10⁻⁶ cm/s]	Papp B→A at 90 min [2] [×10⁻⁶ cm/s]	efflux ratio at 90 min [2]	% QH (percentage of hepatic blood flow) [3] [%]	F (%) @ 5 mg/kg ([4]; Rat Female) [%]	F (%) @ 5 mg/kg ([4]; Rat Male) [%]	EC50 [5] [nM]
CC(C)OC(=O)Nc1ccc(-c2cnc(C3CCC(NC(=O)OC[C@@H]4CCCN4C)CC3)s2)c(S(=O)(=O)NC(C)(C)C)c1 (stereo partly drawn) [Ex. 9, isopropyl (3-(N-(tert-butyl)sulfamoyl)-4-(2-((1S,4r)-4-(((((S)-1-methylpyrrolidin-2-yl)methoxy)carbonyl)amino)cyclohexyl)thiazol-5-yl)phenyl)carbamate]	100 to 1000	–	–	–	–	–	–	–
CC(C)OC(=O)NC1CCC(c2ncc(-c3ccc(NC(=O)NCc4ccccn4)cc3S(=O)(=O)NC(C)(C)C)s2)CC1 (stereo not shown) [Ex. 29, isopropyl ((1r,4r)-4-(5-(2-(N-(tert-butyl)sulfamoyl)-4-(3-(pyridin-2-ylmethyl)ureido)phenyl)thiazol-2-yl)cyclohexyl)carbamate]	–	10.9	24.1	2.2	78.8	8.39	3.69	–
CC(C)OC(=O)NC1CCC(c2ncc(-c3ccc(NC(=O)NCc4ncccc4F)cc3S(=O)(=O)NC(C)(C)C)s2)CC1 (stereo not shown) [Ex. 31, isopropyl ((1r,4r)-4-(5-(2-(N-(tert-butyl)sulfamoyl)-4-(3-((3-fluoropyridin-2-yl)methyl)ureido)phenyl)thiazol-2-yl)cyclohexyl)carbamate]	–	12.8	13.6	1.1	77.3	2.77	1.49	–
CC(C)OC(=O)NC1CCC(c2ncc(-c3ccc(NC(=O)OC[C@H]4CCCN4C)cc3S(=O)(=O)NC(C)(C)C)s2)CC1 (stereo partly drawn) [Ex. 34, isopropyl ((1R,4r)-4-(5-(2-(N-(tert-butyl)sulfamoyl)-4-(((((R)-1-methylpyrrolidin-2-yl)methoxy)carbonyl)amino)phenyl)thiazol-2-yl)cyclohexyl)carbamate]	100 to 1000	0.4	45.2	104	–	–	–	–
CC(C)OC(=O)NC1CCC(c2ncc(-c3ccc(NC(=O)OC[C@@H]4CCCN4C)cc3S(=O)(=O)NC(C)(C)C)s2)CC1 (stereo partly drawn) [Ex. 35, isopropyl ((1S,4r)-4-(5-(2-(N-(tert-butyl)sulfamoyl)-4-(((((S)-1-methylpyrrolidin-2-yl)methoxy)carbonyl)amino)phenyl)thiazol-2-yl)cyclohexyl)carbamate]	100 to 1000	0.4	41	99.1	–	–	–	–
CC(C)OC(=O)N[C@H]1CC[C@H](c2ncc(-c3ccc(NC(=O)NCc4ccccc4)cc3S(=O)(=O)NC(C)(C)C)s2)CC1 [Ex. 66A, trans-isopropyl N-[4-[5-[4-(benzylcarbamoylamino)-2-(tert-butylsulfamoyl)phenyl]thiazol-2-yl]cyclohexyl]carbamate]	–	–	–	–	49.6	3.31	2.55	–
CC(C)OC(=O)Nc1ccc(-c2cnc([C@H]3CC[C@H](NC(=O)OC(C)C)CC3)s2)c(S(=O)(=O)NC(C)(C)C)c1 [Ex. 67A, trans-isopropyl N-[3-(tert-butylsulfamoyl)-4-[2-[4-(isopropoxycarbonylamino)cyclohexyl]thiazol-5-yl]phenyl]carbamate]	–	–	–	–	<20.3	86.5	46.9	> 10000
